From US10865186B2, “Opioid agonists and uses thereof” (Nektar Therapeutics, priority 2013, dated 2020)
Where two headings read alike, the source gives them in different places.

Tested on: Swiss Albino or CD-1 male mice
Assay: Acetic acid writhing (AAW) analgesic assay
Format: in vivo, mouse
Conditions: for inhibition in vivo at 30 mg/kg: Mus musculus, 20 min, read-out: AAW % Efficacy
Protocol: Approaches for evaluating analgesic activity of a compound of the present invention in vivo include a “writhing test.” Briefly, the compound to be tested is administered [by, for example, injection (e.g., subcutaneous injection)] to the mouse. Thereafter, a 0.5% acetic acid solution is administered (i.p.) to a mouse and the numbers of writhing responses are counted for twenty minutes. Antinociception is quantified as reduction in the number of writhes respective to vehicle.
An analgesic assay was used to determine whether a given compound can reduce and/or prevent visceral pain in mice. The assay utilizes Swiss Albino or CD-1 male mice (5-10 mice per group), each mouse being approximately 0.015-0.030 kg on the study day. Mice were treated according to standard protocols.
The animal was given an intraperitoneal (IP) injection of an irritant (acetic acid) that induces “writhing” which may include: contractions of the abdomen, twisting and turning of the trunk, arching of the back and the extension of the hindlimbs. Mice are given a single IP injection (0.1 mL/10 g bodyweight) of a 0.5% acetic acid solution. After the injection the animals were returned to their observation enclosure and their behavior was observed. Contractions were counted between 0 and 20 minutes after the injection. The animals were used once. In certain instances, the test articles were administered at multiple doses to determine a dose response curve.
Table 4 provides the results for certain compounds of the present invention that were administered subcutaneously. Table 5 provides the results for certain compounds of the present invention that were administered orally.

In the case of COCCOCCOCCOCCOCCOc1cccc(Nc2ccc3c(c2)[C@]2(C)CCN(CC4CC4)[C@H](C3=O)[C@@H]2C)c1 [Compound 8, (2S,6R,11R)-8-((3-(2,5,8,11,14-pentaoxahexadecan-16-yloxy)phenyl)amino)-3-(cyclopropylmethyl)-6,11-dimethyl-3,4,5,6-tetrahydro-2,6-methanobenzo[d]azocin-1(2H)-one], the “AAW % Efficacy” value (subcutaneous, 30 mg/kg) is reported as 100.0%.

In the case of COCCOCCOCCOCCOCCNc1cccc(Nc2ccc3c(c2)[C@]2(C)CCN(CC4CC4)[C@H](C3=O)[C@@H]2C)c1 [Compound 11, (2S,6R,11R)-8-((3-(2,5,8,11,14-pentaoxahexadecan-16-ylamino)phenyl)amino)-3-(cyclopropylmethyl)-6,11-dimethyl-3,4,5,6-tetrahydro-2,6-methanobenzo[d]azocin-1(2H)-one], the inhibition in vivo at 30 mg/kg (sc, subcutaneous) is reported as 100%.

In the case of C[C@H]1[C@H]2C(=O)c3ccc(Nc4ccc(NCCOCCOCCOCCOCCOC(F)(F)F)cc4)cc3[C@]1(C)CCN2CC1CC1 [Compound 20, (2S,6R,11R)-3-(cyclopropylmethyl)-6,11-dimethyl-8-((4-((1,1,1-trifluoro-2,5,8,11,14-pentaoxahexadecan-16-yl)amino)phenyl)amino)-3,4,5,6-tetrahydro-2,6-methanobenzo[d]azocin-1(2H)-one], the inhibition in vivo at 30 mg/kg (oral) is reported as 100%.
